pIC50: −log10 of the molar value.

What all share (format): cell-based
One assay addresses T1, PR (Rattus norvegicus, UniProt Q63449).
T1 construct: expressed in transfected cells
T1 sequence (Q63449 1-923): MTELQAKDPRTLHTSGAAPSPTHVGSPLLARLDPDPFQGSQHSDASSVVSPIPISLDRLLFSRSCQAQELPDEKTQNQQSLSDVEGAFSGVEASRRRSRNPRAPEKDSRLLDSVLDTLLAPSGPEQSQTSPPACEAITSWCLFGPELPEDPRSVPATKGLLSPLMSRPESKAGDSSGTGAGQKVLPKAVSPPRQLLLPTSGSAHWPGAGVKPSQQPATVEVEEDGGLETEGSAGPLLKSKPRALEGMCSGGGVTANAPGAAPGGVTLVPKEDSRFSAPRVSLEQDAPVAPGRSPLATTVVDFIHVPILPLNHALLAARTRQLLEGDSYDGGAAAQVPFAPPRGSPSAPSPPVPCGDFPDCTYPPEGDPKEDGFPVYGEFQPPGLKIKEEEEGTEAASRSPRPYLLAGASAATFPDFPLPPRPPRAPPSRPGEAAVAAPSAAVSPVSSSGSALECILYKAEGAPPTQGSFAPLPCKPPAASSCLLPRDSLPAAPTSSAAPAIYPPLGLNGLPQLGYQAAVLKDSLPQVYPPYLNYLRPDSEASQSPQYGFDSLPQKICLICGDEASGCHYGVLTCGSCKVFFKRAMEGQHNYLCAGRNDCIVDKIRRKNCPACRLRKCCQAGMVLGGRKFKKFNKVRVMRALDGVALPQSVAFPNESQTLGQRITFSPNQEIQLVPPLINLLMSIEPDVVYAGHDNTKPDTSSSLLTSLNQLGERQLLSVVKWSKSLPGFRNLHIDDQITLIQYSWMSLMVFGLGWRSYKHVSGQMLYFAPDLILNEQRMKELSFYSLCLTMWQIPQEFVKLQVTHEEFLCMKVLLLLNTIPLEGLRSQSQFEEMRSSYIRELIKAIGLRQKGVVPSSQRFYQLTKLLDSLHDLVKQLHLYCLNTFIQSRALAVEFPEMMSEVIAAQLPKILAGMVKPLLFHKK
The assay can be described thus: PR transactivation in HEK-293 cells. As to the method:
(§1) Rat GR, MR, PR, ER-α and ER-β were individually cloned into a pCR3.1 vector backbone. Sequencing was performed to verify the absence of any mutations. HEK-293 cells were plated at 90,000 cells per well of a 24 well plate in Dulbecco's Minimal Essential Media supplemented with 5% charcoal-stripped FBS. […] Luciferase assays were performed 48 h after transfection. Transcriptional activation values are represented as firefly luciferase normalized to renilla luciferase.

A further assay deals with HCI-13 tumor fragments. The experiment in a line: HCI-13 ex vivo sponge culture, real time PCR. Particulars: for reversal of pS2 gene expression inhibited by Formula IX: 100 nM PMA or 100 ng/mL EGF before 1 μM Formula IX. As to the method: HCI-13 tumors grown in female mice were allowed to reach 500-1000 mm^3 before the animals were sacrificed and the tumors were excised to be used for sponge culture. Patient specimens frozen in liquid nitrogen in freezing medium were used for sponge culture. […] Tumors were sliced into small pieces (˜1 mm^3) and incubated on pre-soaked gelatin sponges (5 fragments/sponge) in 12 well plates containing 1.5 mL medium (MEM+10% FBS+2 mM L-glutamine+10 μg/mL insulin+10 μg/mL hydrocortisone+penicillin:streptomycin). The cultures were performed in triplicates for HCI-13 and singly for patient specimens. Pooled samples (n=5/sponge) from each sponge constituted one sample. Tissues were harvested after 3 days of treatment, RNA extracted, and expression of various genes measured. Although the same procedure was adopted for specimens obtained from breast cancer patients, the specimens were cultured singly (n=5/sponge=one sample) and not in triplicates as performed for HCI-13.

Assay [1] deals with HCC-38 triple negative breast cancer cells. The experiment in a line: SRB cell viability, HCC-38 cells infected with AR adenovirus. Particulars: 3 days. As to the method: (§2) The SRB assay was used to determine cell number during cytotoxocity experiments. The following protocol was used: • 1. Cells were detached with 0.25% trypsin. • 2. Experimental cultures were cultured in 96-well microtiter plates (200 μL growth medium per well; 1,000-200,000 cells per well). • 3. Cultures were fixed with 50 μL 50% TCA (4° C.). (see cell fixation protocol for details). • 4. Fixed cells were stained with 50 μL 0.4% (wt/vol) SRB in 1% acetic acid for 10 minutes. • 5. SRB was removed and the cultures were quickly* rinsed 5 times with 1% acetic acid to remove unbound dye.** • 6. Cultures were air-dried overnight until there was no visible moisture. • 7. The cellular protein-bound SRB was dissolved with 200 μL unbuffered Tris base (10 mM, pH 10.5) for 30 minutes on a rocking platform shaker. • 8. Absorbance was read at 540 nm. * quickly performing rinsing process was to prevent desorption of protein-bound SRB ** completely removed residual wash solution by sharply flicking plates over sink.
The following protocol was used for fixing cells: • a. 50 μL of 50% TCA (4° C.) was gently layered on the top of growth medium in each well to make a final TCA concentration of 10%. • b. Cultures were incubated at 4° C. for 1 hour. • c. Cultures were washed 5 times with tap water to remove TCA, growth medium, low-molecular-weight metabolites, and serum protein. • d. […]

In assay [2] the test system is MDA-MB-231 triple negative breast cancer cells. The experiment in a line: SRB cell viability, MDA-MB-231 cells infected with AR adenovirus. How it is done: as §2
The following protocol was used for fixing cells: • a. 50 μL of 50% TCA (4° C.) was gently layered on the top of growth medium in each well to make a final TCA concentration of 10%. • b. Cultures were incubated at 4° C. for 1 hour. • c. Cultures were washed 5 times with tap water to remove TCA, growth medium, low-molecular-weight metabolites, and serum protein. • d. Plates were air-dried until there was no visible moisture.
Cells were treated in charcoal stripped FBS (FIGS. 4A, 4C, 4E, 4G, 4I, 4K, 4M and 4O) or full serum (FIGS. 4B, 4D, 4F, 4H, 4J, 4L, 4N and 4P) for 3 days, fixed and stained with […] (SRB) to measure cell viability. Anti-proliferative IC50 values were calculated in breast cancer cells and compared to transactivation values, i.e., EC50 (agonists) and IC50 (antagonists) values, generated in HEK-293 cells.

For a further assay, the system named is MDA-MB-231-AR cells. The experiment in a line: Morphology of MDA-MB-231-AR cells. The conditions noted are these: 3 days. How it is done: MDA-MB-231 cells were stably transfected with AR using lentivirus. […] Live cells were visualized using a light-microscope and photographed. The cells were imaged at the same magnification and under the same microscopic conditions.
MDA-MB-231 cells were stably transfected with AR using lentivirus and were treated with vehicle or AR agonists at the indicated concentrations. At the end of 3 days of incubation, the cells were imaged under a microscope (40×).

For another assay, the target named is T2, MR (Rattus norvegicus, UniProt P22199).
T2 construct: expressed in transfected cells
T2 sequence (P22199 1-981): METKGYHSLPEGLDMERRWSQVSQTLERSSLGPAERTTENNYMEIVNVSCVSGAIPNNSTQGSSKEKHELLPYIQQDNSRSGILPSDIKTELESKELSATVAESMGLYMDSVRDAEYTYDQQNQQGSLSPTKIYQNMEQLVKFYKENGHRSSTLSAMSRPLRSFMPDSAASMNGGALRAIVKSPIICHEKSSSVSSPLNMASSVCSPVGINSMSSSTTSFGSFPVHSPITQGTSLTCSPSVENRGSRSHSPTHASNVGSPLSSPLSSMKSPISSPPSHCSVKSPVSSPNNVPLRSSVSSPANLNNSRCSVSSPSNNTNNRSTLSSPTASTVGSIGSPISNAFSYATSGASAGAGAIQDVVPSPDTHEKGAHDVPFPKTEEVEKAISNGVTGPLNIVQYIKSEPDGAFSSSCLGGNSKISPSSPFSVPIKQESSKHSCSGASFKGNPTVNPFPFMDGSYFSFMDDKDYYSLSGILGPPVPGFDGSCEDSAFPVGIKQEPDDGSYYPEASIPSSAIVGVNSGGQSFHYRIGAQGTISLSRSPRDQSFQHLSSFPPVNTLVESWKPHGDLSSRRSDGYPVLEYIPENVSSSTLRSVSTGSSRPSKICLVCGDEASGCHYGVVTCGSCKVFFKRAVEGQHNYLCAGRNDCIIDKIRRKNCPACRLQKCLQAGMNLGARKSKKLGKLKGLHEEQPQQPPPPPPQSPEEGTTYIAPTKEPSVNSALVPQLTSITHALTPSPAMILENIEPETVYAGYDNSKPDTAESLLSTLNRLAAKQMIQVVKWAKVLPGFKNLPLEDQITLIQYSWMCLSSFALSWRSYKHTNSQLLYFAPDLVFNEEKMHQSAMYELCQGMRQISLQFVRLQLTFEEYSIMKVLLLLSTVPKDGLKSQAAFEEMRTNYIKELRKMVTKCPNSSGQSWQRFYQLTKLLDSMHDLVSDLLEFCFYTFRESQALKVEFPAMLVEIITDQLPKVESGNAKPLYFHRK
The experiment in a line: MR transactivation in HEK-293 cells. The conditions noted are these: 1 nM. How it is done:
as §1

`C[C@@](O)(COc1ccc(C#N)cc1)C(=O)Nc1ccc(C#N)c(C(F)(F)F)c1` [R-enantiomer of Formula IX, (R)—N-(4-cyano-3-(trifluoromethyl)phenyl)-3-(4-cyanophenoxy)-2-hydroxy-2-methylpropanamide]: the pIC50 (as a rule, the negative decadic logarithm of the IC50, by convention in mol/L) at PR is 5.77.
Consider `C[C@]12CCC(=O)C[C@@H]1CC[C@@H]1[C@@H]2CC[C@]2(C)[C@@H](O)CC[C@@H]12` [DHT, 5α-dihydrotestosterone, reference compound], for which, in the assay with HCI-13 tumor fragments (10 nM DHT, 1 μM Formula IX, 100 nM fulvestrant, 3 days), the “inhibition of ER-induced pS2 and PR gene expression” value was “effective”. For the same compound, in the assay with HCI-13 tumor fragments (3 days), the “AR-target gene FKBP5 expression” value is given as “induced” and the MKI67 expression result was “inhibited”. The cell growth entry in assay [1] is given as “inhibited”. Further, the “growth inhibitory effects in the presence of bicalutamide” value in assay [2] (AR-positive cells, 10 μM bicalutamide) was “weakened growth inhibitory effects”. In assay [2] (cells with AR, 3 days, SRB), the cell growth result was “inhibited”. Besides, in the assay with MDA-MB-231-AR cells, the cell morphology result is recorded as “altered the morphology into a more anchored phenotype”.
For `C[C@]12CCC(=O)C=C1CC[C@@H]1[C@@H]2[C@@H](O)C[C@]2(C=O)[C@@H](C(=O)CO)CC[C@@H]12` [aldosterone, reference compound], the “MR activity, induction” value at MR turned out to be 60 fold.
Consider EGF: epidermal growth factor, for which, in the assay on HCI-13 tumor fragments, the “reversal of pS2 gene expression inhibited by Formula IX” value was “only marginally reversed”.
At PR, `CC#C[C@]1(O)CC[C@H]2[C@@H]3CCC4=CC(=O)CCC4=C3[C@@H](c3ccc(N(C)C)cc3)C[C@@]21C` [RU486, reference compound] showed a pIC50 of 10.32.
Regarding `CCCCCCCCCCCCCC(=O)O[C@@H]1[C@@H](C)[C@@]2(O)[C@@H](C=C(CO)C[C@]3(O)C(=O)C(C)=C[C@@H]23)[C@@H]2C(C)(C)[C@]12OC(C)=O` [PMA, phorbol 12-myristate 13-acetate], in the assay with HCI-13 tumor fragments, the “reversal of pS2 gene expression inhibited by Formula IX” value was “completely reversed”.
Consider `CC(=O)[C@H]1CC[C@H]2[C@@H]3CCC4=CC(=O)CC[C@]4(C)[C@H]3CC[C@]12C` [Progesterone, progesterone, reference compound], for which the PR activation at PR (1 nM) is 23 folds.
